32 molecules from US8435980B2 (AbbVie Inc., priority 2009, dated 2013) can be followed below.

SMILES strings stand for the structures. A value given as a limit tells only on which side of the number the result lay.

T1 sequence (O00311 whole entry): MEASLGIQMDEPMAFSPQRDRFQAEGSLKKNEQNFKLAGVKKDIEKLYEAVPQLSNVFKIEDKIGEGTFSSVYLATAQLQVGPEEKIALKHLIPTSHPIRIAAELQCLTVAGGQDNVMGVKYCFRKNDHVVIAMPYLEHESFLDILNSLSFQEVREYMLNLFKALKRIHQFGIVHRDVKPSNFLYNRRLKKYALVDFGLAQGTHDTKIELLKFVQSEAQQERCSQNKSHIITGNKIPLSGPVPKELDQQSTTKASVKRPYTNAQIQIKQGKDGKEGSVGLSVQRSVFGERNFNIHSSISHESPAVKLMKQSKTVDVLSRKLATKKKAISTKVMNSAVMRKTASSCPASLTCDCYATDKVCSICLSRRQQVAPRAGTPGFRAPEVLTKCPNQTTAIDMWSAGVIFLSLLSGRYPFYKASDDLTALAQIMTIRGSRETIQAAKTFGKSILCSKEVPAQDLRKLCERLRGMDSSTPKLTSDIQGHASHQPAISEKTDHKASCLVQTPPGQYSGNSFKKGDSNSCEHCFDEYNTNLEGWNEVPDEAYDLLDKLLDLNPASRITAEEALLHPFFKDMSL
T1 sequence (Q9UBU7 whole entry partner): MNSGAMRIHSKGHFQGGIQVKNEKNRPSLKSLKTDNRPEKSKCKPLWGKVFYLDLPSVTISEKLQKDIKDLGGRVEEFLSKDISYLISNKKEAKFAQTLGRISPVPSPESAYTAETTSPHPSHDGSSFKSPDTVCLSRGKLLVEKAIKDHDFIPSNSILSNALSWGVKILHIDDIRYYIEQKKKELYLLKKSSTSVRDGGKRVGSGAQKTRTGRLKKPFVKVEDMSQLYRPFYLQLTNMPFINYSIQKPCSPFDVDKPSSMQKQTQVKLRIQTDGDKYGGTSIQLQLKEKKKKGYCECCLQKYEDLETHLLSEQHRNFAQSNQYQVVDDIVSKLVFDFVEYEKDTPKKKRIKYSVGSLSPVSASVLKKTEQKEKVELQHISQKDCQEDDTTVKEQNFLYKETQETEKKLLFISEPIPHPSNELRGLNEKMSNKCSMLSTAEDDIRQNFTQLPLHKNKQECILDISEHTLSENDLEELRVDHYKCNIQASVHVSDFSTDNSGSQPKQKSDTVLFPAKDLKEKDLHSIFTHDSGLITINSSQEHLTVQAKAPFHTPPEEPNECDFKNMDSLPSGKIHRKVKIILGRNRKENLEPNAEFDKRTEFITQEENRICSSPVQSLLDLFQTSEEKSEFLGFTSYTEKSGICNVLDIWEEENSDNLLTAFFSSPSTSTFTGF

This test has as its target T1, Cdc7 (BEV coexpressed huCDC7/DBF4) (Homo sapiens, UniProt O00311).
T1 construct: made in house; host or cells: BEV (baculovirus expression vector) co-expression; insect cells are implied but no cell line is named
Put plainly: Cdc7 enzyme inhibition assay ([33P]ATP, biotinylated peptide substrate, FlashPlate). In kind it is biochemical. Conditions: Table 3; enzyme inhibition data (Ki). Here is the method:
Cdc7 (BEV coexpressed huCDC7/DBF4) is prepared internally. Cdc7 assays are conducted as follows with final concentrations as listed. […] Reactions are quenched after 1 hr by the addition of 90 μL stop buffer (50 mM EDTA, 2M NaCl). […] (Ki) for exemplary compounds.
One may read the Ki as a dissociation constant, usually derived from enzyme kinetics or from competition with a known ligand. With `CC(=O)NC1CCC(CC2CCC(Nc3cc(-c4c[nH]c5ncccc45)cc(Cl)n3)CC2)CC1` (centres unmarked) [Example 174, N-{4-[(4-{[6-chloro-4-(1H-pyrrolo[2,3-b]pyridin-3-yl)pyridin-2-yl]amino}cyclohexyl)methyl]cyclohexyl}acetamide], the Ki was < 10 nM.
The figure for `O=C(C1CC1)N1CCC(NC2CCC(Nc3cc(-c4c[nH]c5ncccc45)cc(Cl)n3)CC2)CC1` (centres unmarked) [Example 175, {4-[(4-{[6-chloro-4-(1H-pyrrolo[2,3-b]pyridin-3-yl)pyridin-2-yl]amino}cyclohexyl)amino]piperidin-1-yl}(cyclopropyl)methanone] is < 10 nM; for `Cn1cc(-c2cnc3[nH]cc(-c4cc(Cl)nc(NC5CCCCC5)c4)c3c2)cn1` [Example 176, 6-chloro-N-cyclohexyl-4-[5-(1-methyl-1H-pyrazol-4-yl)-1H-pyrrolo[2,3-b]pyridin-3-yl]pyridin-2-amine] it is < 10 nM.
In the case of `COc1cnc2[nH]cc(-c3cc(Cl)nc(NC4CCCCC4)c3)c2c1` [Example 178, 6-chloro-N-cyclohexyl-4-(5-methoxy-1H-pyrrolo[2,3-b]pyridin-3-yl)pyridin-2-amine] it was < 10 nM; in that of `NCCS(=O)(=O)N[C@H]1CC[C@H](Nc2cc(-c3c[nH]c4ncccc34)cc(Cl)n2)CC1` [Example 179, 2-amino-N-(trans-4-{[6-chloro-4-(1H-pyrrolo[2,3-b]pyridin-3-yl)pyridin-2-yl]amino}cyclohexyl)ethanesulfonamide], < 10 nM; in that of `Oc1cnc2[nH]cc(-c3cc(Cl)nc(NC4CCCCC4)c3)c2c1` [Example 180, 3-[2-chloro-6-(cyclohexylamino)pyridin-4-yl]-1H-pyrrolo[2,3-b]pyridin-5-ol], < 10 nM.
For `Clc1cc(-c2c[nH]c3ncccc23)cc(NC2CCC(C3CCCNC3)CC2)n1` (centres unmarked) [Example 181, 6-chloro-N-[4-(piperidin-3-yl)cyclohexyl]-4-(1H-pyrrolo[2,3-b]pyridin-3-yl)pyridin-2-amine], the inhibition constant Ki is < 10 nM.
The figure for `Clc1cc(-c2c[nH]c3ncccc23)cc(NC2CCC(C3CCN(C4CCC4)CC3)CC2)n1` (centres unmarked) [Example 182, 6-chloro-N-[4-(1-cyclobutylpiperidin-4-yl)cyclohexyl]-4-(1H-pyrrolo[2,3-b]pyridin-3-yl)pyridin-2-amine] is < 10 nM; for `CS(=O)(=O)N1CCC(C2CCC(Nc3cc(-c4c[nH]c5ncccc45)cc(Cl)n3)CC2)CC1` (centres unmarked) [Example 183, 6-chloro-N-{4-[1-(methylsulfonyl)piperidin-4-yl]cyclohexyl}-4-(1H-pyrrolo[2,3-b]pyridin-3-yl)pyridin-2-amine] it is < 10 nM; for `CN1CCC(C2CCC(Nc3cc(-c4c[nH]c5ncccc45)cc(Cl)n3)CC2)CC1` (centres unmarked) [Example 184, 6-chloro-N-[4-(1-methylpiperidin-4-yl)cyclohexyl]-4-(1H-pyrrolo[2,3-b]pyridin-3-yl)pyridin-2-amine] it is < 10 nM.
The figure for `CN1CCC(C2CCC(N(C)c3cc(-c4c[nH]c5ncccc45)cc(Cl)n3)CC2)CC1` (centres unmarked) [Example 185, 6-chloro-N-methyl-N-[4-(1-methylpiperidin-4-yl)cyclohexyl]-4-(1H-pyrrolo[2,3-b]pyridin-3-yl)pyridin-2-amine] is < 10 nM.
Consider `CS(=O)(=O)N1CCCC(C2CCC(Nc3cc(-c4c[nH]c5ncccc45)cc(Cl)n3)CC2)C1` (centres unmarked) [Example 186, 6-chloro-N-{4-[1-(methylsulfonyl)piperidin-3-yl]cyclohexyl}-4-(1H-pyrrolo[2,3-b]pyridin-3-yl)pyridin-2-amine], for which the Ki is < 10 nM.
In the case of `Clc1cc(-c2c[nH]c3ncc(-c4cnn(CCN5CCOCC5)c4)cc23)cc(NC2CCCCC2)n1` [Example 187, 6-chloro-N-cyclohexyl-4-(5-{1-[2-(morpholin-4-yl)ethyl]-1H-pyrazol-4-yl}-1H-pyrrolo[2,3-b]pyridin-3-yl)pyridin-2-amine], the Ki was < 10 nM.
In the case of `O=C(C1CC1)N1CCCC(C2CCC(Nc3cc(-c4c[nH]c5ncccc45)cc(Cl)n3)CC2)C1` (centres unmarked) [Example 188, [3-(4-{[6-chloro-4-(1H-pyrrolo[2,3-b]pyridin-3-yl)pyridin-2-yl]amino}cyclohexyl)piperidin-1-yl](cyclopropyl)methanone] it was < 10 nM; in that of `Clc1cc(-c2c[nH]c3ncccc23)cc(NC2CCC(C3CCCN(C4CCC4)C3)CC2)n1` (centres unmarked) [Example 189, 6-chloro-N-[4-(1-cyclobutylpiperidin-3-yl)cyclohexyl]-4-(1H-pyrrolo[2,3-b]pyridin-3-yl)pyridin-2-amine], < 10 nM; in that of `Clc1cc(-c2c[nH]c3ncccc23)cc(NC2CCC(C3CCNC3)CC2)n1` (centres unmarked) [Example 190, 6-chloro-N-[4-(pyrrolidin-3-yl)cyclohexyl]-4-(1H-pyrrolo[2,3-b]pyridin-3-yl)pyridin-2-amine], < 10 nM.
In the case of `CN1CCC(N2CCC(Nc3cc(-c4c[nH]c5ncccc45)cc(Cl)n3)CC2)CC1` [Example 191, N-[6-chloro-4-(1H-pyrrolo[2,3-b]pyridin-3-yl)pyridin-2-yl]-1′-methyl-1,4′-bipiperidin-4-amine] it was < 10 nM; in that of `O=C(NCCS(=O)(=O)N[C@H]1CC[C@H](Nc2cc(-c3c[nH]c4ncccc34)cc(Cl)n2)CC1)c1ccccc1` [Example 193, N-{2-[(trans-4-{[6-chloro-4-(1H-pyrrolo[2,3-b]pyridin-3-yl)pyridin-2-yl]amino}cyclohexyl)sulfamoyl]ethyl}benzamide], < 10 nM; in that of `CS(=O)(=O)NCCS(=O)(=O)N[C@H]1CC[C@H](Nc2cc(-c3c[nH]c4ncccc34)cc(Cl)n2)CC1` [Example 194, N-(trans-4-{[6-chloro-4-(1H-pyrrolo[2,3-b]pyridin-3-yl)pyridin-2-yl]amino}cyclohexyl)-2-[(methylsulfonyl)amino]ethanesulfonamide], < 10 nM.
For `Clc1cc(-c2c[nH]c3ncc(OCCN4CCOCC4)cc23)cc(NC2CCCCC2)n1` [Example 195, 6-chloro-N-cyclohexyl-4-{5-[2-(morpholin-4-yl)ethoxy]-1H-pyrrolo[2,3-b]pyridin-3-yl}pyridin-2-amine], the Ki is < 10 nM.
Turning to `Cn1cncc1COc1cnc2[nH]cc(-c3cc(Cl)nc(NC4CCCCC4)c3)c2c1` [Example 196, 6-chloro-N-cyclohexyl-4-{5-[(1-methyl-1H-imidazol-5-yl)methoxy]-1H-pyrrolo[2,3-b]pyridin-3-yl}pyridin-2-amine], the Ki is < 10 nM.
For the molecule `CN1CCC(C2CCC(Nc3cc(-c4c[nH]c5ncccc45)cc(Cl)n3)CC2)C1` (centres unmarked) [Example 197, 6-chloro-N-[4-(1-methylpyrrolidin-3-yl)cyclohexyl]-4-(1H-pyrrolo[2,3-b]pyridin-3-yl)pyridin-2-amine], the Ki is < 10 nM.
In the case of `Fc1ccc(CN2CCC(C3CCC(Nc4cc(-c5c[nH]c6ncccc56)cc(Cl)n4)CC3)C2)cc1` (centres unmarked) [Example 198, 6-chloro-N-{4-[1-(4-fluorobenzyl)pyrrolidin-3-yl]cyclohexyl}-4-(1H-pyrrolo[2,3-b]pyridin-3-yl)pyridin-2-amine] it was < 10 nM; in that of `CS(=O)(=O)N1CCC(C2CCC(Nc3cc(-c4c[nH]c5ncccc45)cc(Cl)n3)CC2)C1` (centres unmarked) [Example 199, 6-chloro-N-{4-[1-(methylsulfonyl)pyrrolidin-3-yl]cyclohexyl}-4-(1H-pyrrolo[2,3-b]pyridin-3-yl)pyridin-2-amine], < 10 nM.
In the case of `Clc1cc(-c2c[nH]c3ncccc23)cc(NC2CCN(C3CCC(NC4CCC4)CC3)CC2)n1` (centres unmarked) [Example 200, 6-chloro-N-{1-[4-(cyclobutylamino)cyclohexyl]piperidin-4-yl}-4-(1H-pyrrolo[2,3-b]pyridin-3-yl)pyridin-2-amine], the inhibition constant Ki is < 10 nM.
As for `N#Cc1cnc2[nH]cc(-c3cc(Cl)nc(NC4CCCCC4)c3)c2c1` [Example 201, 3-[2-chloro-6-(cyclohexylamino)pyridin-4-yl]-1-1H-pyrrolo[2,3-b]pyridine-5-carbonitrile], the Ki was in the range of 10 to 100 nM.
The figure for `O=C(N[C@H]1CC[C@H](Nc2cc(-c3c[nH]c4ncccc34)cc(Cl)n2)CC1)c1ccc(F)cc1F` [Example 202, N-(trans-4-{[6-chloro-4-(1H-pyrrolo[2,3-b]pyridin-3-yl)pyridin-2-yl]amino}cyclohexyl)-2,4-difluorobenzamide] is < 10 nM; for `O=C(N[C@H]1CC[C@H](Nc2cc(-c3c[nH]c4ncccc34)cc(Cl)n2)CC1)c1ccc(OC(F)(F)F)cc1` [Example 203, N-(trans-4-{[6-chloro-4-(1H-pyrrolo[2,3-b]pyridin-3-yl)pyridin-2-yl]-amino}cyclohexyl)-4-(trifluoromethoxy)benzamide] it is 10 to 100 nM.
In the case of `Cc1cnc2[nH]cc(-c3cc(Cl)nc(NC4CCCCC4)c3)c2c1` [Example 204, 6-chloro-N-cyclohexyl-4-(5-methyl-1H-pyrrolo[2,3-b]pyridin-3-yl)pyridin-2-amine] it was < 10 nM; in that of `Clc1cc(-c2c[nH]c3ncccc23)cc(Nc2ccccc2)n1` [Example 205, 6-chloro-N-phenyl-4-(1H-pyrrolo[2,3-b]pyridin-3-yl)pyridin-2-amine], < 10 nM; in that of `COc1cc(N2CCC(N3CCN(C)CC3)CC2)ccc1Nc1cc(-c2c[nH]c3ncccc23)cc(Cl)n1` [Example 206, 6-chloro-N-{2-methoxy-4-[4-(4-methylpiperazin-1-yl)piperidin-1-yl]phenyl}-4-(1H-pyrrolo[2,3-b]pyridin-3-yl)pyridin-2-amine], < 10 nM.
In the case of `O=C(N[C@H]1CC[C@H](Nc2cc(-c3c[nH]c4ncccc34)cc(Cl)n2)CC1)C1CN(Cc2ccc(Cl)cc2)C1` [Example 207, 1-(4-chlorobenzyl)-N-(trans-4-{[6-chloro-4-(1H-pyrrolo[2,3-b]pyridin-3-yl)pyridin-2-yl]amino}cyclohexyl)azetidine-3-carboxamide] it was < 10 nM.
